Bases are written 5' to 3'; sugars and linkages follow in the same order, as letters with counts (s phosphorothioate, o phosphodiester; PS: all linkages phosphorothioate). The collection does not say whether C is 5-methylated. l = locked nucleic acid (LNA); d = 2'-deoxy (DNA)
The sequences below were run against Tau (assay: rat primary cortical neurons, FLIPR, 25 uM ASO).

Sequence | calcium oscillation score
CCTTTGAAAGTCCTTT (sugars l4 d8 l4, PS) | 106 % of control
CCTTTGAAAGTCCTTT (sugars l4 d9 l3, PS) | 96.4 % of control
CCTTTGTAATTCCTTCTC (sugars l3 d13 l2, PS) | 53.4 % of control
CCTTTTAAAAGAACCCT (sugars l3 d11 l3, PS) | 96 % of control
CCTTTTAATTCATTAG (sugars l4 d8 l4, PS) | 59 % of control
CCTTTTCATGTTAAATC (sugars l4 d9 l4, PS) | 86.6 % of control
CCTTTTCTACTCTACTC (sugars l3 d12 l2, PS) | 70.9 % of control
CCTTTTCTACTCTACTCT (sugars l3 d13 l2, PS) | 63.3 % of control
CCTTTTCTACTCTACTCTC (sugars l3 d14 l2, PS) | 55.7 % of control
CCTTTTCTACTCTACTCTCA (sugars l2 d16 l2, PS) | 62.1 % of control
CCTTTTTATTTCCTCCGC (sugars l3 d13 l2, PS) | 40.1 % of control
CCTTTTTCCATCTTACTAAT (sugars l3 d14 l3, PS) | 54.7 % of control
CGAAACCAAGGTCCCACCAG (sugars l3 d14 l3, PS) | 40.4 % of control
CGAACTGCGAGGAGCA (sugars l3 d10 l3, PS) | 2.71 % of control
CGAACTGCGAGGAGCAGCTG (sugars l3 d14 l3, PS) | 0 % of control
CGAATTACCTAACCTC (sugars l3 d9 l4, PS) | 88.2 % of control
CGACTTATCTATCCAT (sugars l4 d9 l3, PS) | 46.2 % of control
CGACTTATCTATCCATC (sugars l4 d10 l3, PS) | 50.5 % of control
CGACTTATCTATCCATCT (sugars l2 d12 l4, PS) | 45.8 % of control
CGACTTGTACACGATC (sugars l3 d10 l3, PS) | 48.9 % of control
CGAGCCAAAGCCGA (sugars l3 d8 l3, PS) | 116 % of control
CGAGTCTACCATGTCG (sugars l3 d10 l3, PS) | 103 % of control

Sequence | calcium oscillation score
CGAGTCTACCATGTCGATGC (sugars l3 d14 l3, PS) | 78.5 % of control
CGATGCTGCCGGTGGA (sugars l3 d10 l3, PS) | 2.61 % of control
CGCACCAGGAACCTTCCAGA (sugars l3 d14 l3, PS) | 28.2 % of control
CGCAGGCGCGAGCA (sugars l3 d8 l3, PS) | 102 % of control
CGCAGGCGCGAGCAGC (sugars l3 d10 l3, PS) | 20.7 % of control
CGCCAGGGACGTGGGTGATA (sugars l3 d14 l3, PS) | 0 % of control
CGCCCCACTTTTAATT (sugars l3 d11 l2, PS) | 58.3 % of control
CGCCCCACTTTTAATTA (sugars l2 d12 l3, PS) | 77.2 % of control
CGCCTTTAGTGATTACAGGC (sugars l3 d14 l3, PS) | 20.2 % of control
CGCGGAAGGTCAGCTT (sugars l3 d10 l3, PS) | 33.3 % of control
CGCGGAAGGTCAGCTTGTGG (sugars l3 d14 l3, PS) | 0 % of control
CGCTTCCAGTCCCG (sugars l3 d8 l3, PS) | 107 % of control
CGCTTCCAGTCCCGTC (sugars l3 d10 l3, PS) | 15.7 % of control
CGGAAGGTCAGCTTGT (sugars l3 d10 l3, PS) | 32.5 % of control
CGGAAGGTCAGCTTGTGGGT (sugars l3 d14 l3, PS) | 14.5 % of control
CGGCGCAGGCGCGAGC (sugars l3 d10 l3, PS) | 2.71 % of control
CGGTAGGAAAGACATTTCCC (sugars l3 d14 l3, PS) | 10.1 % of control
CGTCAGCTAGCGTGGC (sugars l3 d10 l3, PS) | 117 % of control
CGTCCCAGCGTGATCTTCCA (sugars l4 d11 l5, PS) | 42.6 % of control
CGTCCCAGCGTGATCTTCCA (sugars l5 d11 l4, PS) | 36.2 % of control
CGTCCCAGCGTGATCTTCCA (sugars ldlllddddddddddlldll, PS) | 38.3 % of control
